{"source": "patent US8299083B2", "about": "“PDE5 inhibitor compositions and methods for treating cardiac indications” (The Johns Hopkins University, priority 2004, dated 2012)", "key": {"AktTG and NTG mice": {"tested_on": "AktTG and NTG mice", "experiment": "Transgenic mice with cardiac-targeted Akt overexpression (AktTG) and NTG controls: pressure-volume analysis, echo, heart weight", "assay_type": "in vivo, mouse", "settings": "for EDP / EDV / EF / ESP / ESV / Eesn / HR / PMXI / Tau / dP/dtmax/IP / dPdtmax / dPdtmin: sildenafil 100 mg/kg/day", "experimental": "In vehicle-treated animals (age 4-5 months), AktTG hearts were larger and had reduced heart function (FIG. 10E and Table 3). […]\nTransthoracic two-dimensional guided M-mode echocardiography was performed in non-anesthetized mice. Measurements were done using an echocardiography system, the SEQUOIA C256 (Siemens, Munich, Del.) with the 15 MHz linear-array transducer. Intact heart hemodynamic analysis was performed as described^90. These studies employed a four-electrode pressure-volume catheter (model SPR-839, Millar Instruments) placed through the left ventricular apex in the open chest anesthetized animal and positioned along the longitudinal axis to record chamber volume by impedance and pressure by micromanometry.\nAll hemodynamic data were recorded using custom developed software, digitizing signals at 2 KHz. End-diastolic and end-systolic volumes were the average of volumes measured during isovolumic contraction and relaxation, respectively. ESP was the pressure at maximal chamber elastance (P/V ratio)^1. EDP was the diastolic pressure at the lower right hand corner of the pressure-volume loop. Cardiac output was determined from a perivascular flow probe (Transonics, Ithica, N.Y.) placed around the thoracic aorta. Ea was equal to the ratio of end-systolic pressure divided by stroke volume. The volume catheter signal was calibrated for both gain and offset. Gain was determined by setting the catheter-derived cardiac output (equal to pressure-volume loop width times heart rate) to that obtained from the calibrated flow probe value. Offset was determined using the hypertonic saline method Ventricular power was equal to the instantaneous product of pressure times flow, and the peak power was divided by EDV to obtain the power index PMXI^79. […] The slope of this relation Ees was normalized by heart mass and expressed per gm heart mass. Msw was derived from the linear relation between stroke work and EDV from the same set of variably loaded cardiac cycles used to derive Eesn, and is another load-independent assessment of systolic contractile function^4. Tau was obtained from the model: P=Po+ae^−t/□ . . . fitting data during isovolumic relaxation. dP/dt was derived from a digital filter (5-point weighted slope). PFR/EDV was derived from the maximal first derivative of the volume signal during early diastole, divided by EDV."}, "PKG-1": {"tested_on": "PKG-1", "experiment": "PKG-1 activity in isolated adult myocytes", "assay_type": "cell-based, mouse", "set-up": "concentration or dose not given beside the values", "experimental": "After 10 min, cells were lysed and PKG-1 activity determined."}, "ERK1/2": {"tested_on": "ERK1/2", "experiment": "ERK1/2 activation in TAC hearts (Western blot)", "assay_type": "in vivo, mouse", "experimental": "Protein was prepared from snap-frozen heart tissue using extraction buffer as described previously^90. Antibodies included calcineurin (1:2000 dilution, BD Transduction Laboratories (San Diego, Calif.), GSK3β, Ser9-phospho-GSK313, Akt, Ser473-phospho-Akt, ERK, Thr202/Thr204-phospho-ERK (1:1000 dilution, Cell Signaling Technology, Beverly, Mass.). Primary antibody binding was visualized by horse radish peroxidase-conjugated secondary antibodies and enhanced chemiluminescence (Pierce, Rockford, Ill.)."}, "[1]": {"tested_on": "C57bl6 mice, isoproterenol-stimulated heart", "experiment": "Acute isoproterenol-stimulated contractility in intact mice (pressure-volume relations)", "assay_type": "in vivo, mouse", "experimental": "Isoproterenol (ISO: 20 ng/kg/minutes i.v.×5 min) with or without PDE5A inhibitor was given to anesthetized intact mice, and in vivo heart function assessed by pressure-volume relations at a fixed atrial pacing rate of 600-650 min^−1. Data were measured at baseline, with ISO, re-baseline, PDE5A-inhibition, and PDE5A inhibition+ISO. The ISO-only response was highly reproducible."}, "NFAT": {"tested_on": "NFAT", "experiment": "NFAT promoter activation in neonatal rat myocytes (β-galactosidase / luciferase reporter)", "assay_type": "cell-based", "settings": "stimulated by PE or BayK8644, 1 μM sildenafil", "experimental": "Rat neonatal cardiac myocytes were isolated from 1- to 2-day-old Sprague-Dawley rats as described^50. […] Sigma Chemical (St. […] To assess NFAT activation, cells were transfected with adenovirus expressing the three NFAT-binding sites linked to β-galactosidase ([…]), using previously described methods^72. Additional studies were performed using an alternative reporter adenovirus encoding luciferase driven by the NFAT promoter. This was performed twenty-four hours prior to PE, BayK8644, or activated calcineurin stimulation. The latter was achieved by a co-transfection with a replication-deficient adenovirus encoding a Ca^2+-independent, constitutively active, truncated mouse calcineurin […]^72). […] After an additional forty-eight hours, NFAT activation was assessed by β-galactosidase histology/activity or luciferase activity. […] Luciferase activity was assayed by commercial kit (Stratagene, La Jolla, Calif.) and read on a plate luminometer."}, "PI3Kα": {"tested_on": "PI3Kα", "experiment": "PI3Kα activity in TAC hearts", "assay_type": "in vivo, mouse", "settings": "3 week TAC", "experimental": "PI3Kα activity was assessed by Elisa assay following immunoprecipitation of PI3K (Seize X IP Kit, Pierce) using a p85α monoclonal antibody (Cell Signaling), with activity measured by fluorescence polarization (Molecular Devices, Perkin-Elmer Victor 3 plate reader). Akt activity (IP with s473-pAkt Ab, GSK-3 fusion protein substrate) was performed using a commercial kit (Cell Signaling Technology, Beverly, Mass.). PKG-1 activity was assayed by calorimetric analysis, CycLex (Clinisciences, Montrouge, FR) from whole heart lysates."}, "STAT3": {"tested_on": "STAT3", "experiment": "STAT3 phosphorylation in TAC hearts", "assay_type": "in vivo, mouse", "experimental": "Myocardial tissue extract was electrophoresed in SDS-New Page gel, and probed for both tyrosine phosphorylated (Tyr705) and total Stat3. In additional studies, rat neonatal myocytes were cultured, then exposed to interleukin 6 (IL-6, Cell Signaling, 100 ng/ml) for one hour. […] In other studies, cells were pre-transfected (Lipofectamine™, Invitrogen) with mixed oligonucleotide silencing RNAs for STAT3 (siRNA, SmarTTpool Stat3). Protein extracts were obtained from myocyte extracts after the 1 hour incubation period, and probed for phosphorylated and total protein levels of Stat1 (Tyr701) and Stat3 (Tyr705) (Cell Signaling Inc.). siRNA was transfected into neonatal myocytes."}, "[2]": {"settings": "inhibitor combined with isoproterenol"}}, "note": "Values joined by “and” are separate entries in the source; they are usually repeats but may differ in a detail not shown here. Identical values can stand only once."}
{"smiles": "CCCc1nn(C)c2c(=O)[nH]c(-c3cc(S(=O)(=O)N4CCN(C)CC4)ccc3OCC)nc12", "note": "[sildenafil]", "values": [{"measurement": "progressive hypertrophy in AktTG mice (serial echo, heart weight/tibia length)", "setting": "AktTG and NTG mice; AktTG, 6-week period", "result": "did not blunt progressive hypertrophy"}, {"measurement": "EDP", "setting": "AktTG and NTG mice; AktTG", "result": "8.9 ± 1.1"}, {"measurement": "EDV", "setting": "AktTG and NTG mice; AktTG", "result": "57.6 ± 5.4"}, {"measurement": "EF", "setting": "AktTG and NTG mice; AktTG", "result": "31.8 ± 2.1"}, {"measurement": "ESP", "setting": "AktTG and NTG mice; AktTG", "result": "90.1 ± 0.9"}, {"measurement": "ESV", "setting": "AktTG and NTG mice; AktTG", "result": "39.6 ± 4.5"}, {"measurement": "Eesn", "setting": "AktTG and NTG mice; AktTG", "result": "21.5 ± 2.9"}, {"measurement": "HR", "setting": "AktTG and NTG mice; AktTG", "result": "569.5 ± 47.4"}, {"measurement": "PMXI", "setting": "AktTG and NTG mice; AktTG", "result": "17.8 ± 1.9"}, {"measurement": "Tau", "setting": "AktTG and NTG mice; AktTG", "result": "10.0 ± 0.6"}, {"measurement": "dP/dtmax/IP", "setting": "AktTG and NTG mice; AktTG", "result": "128.5 ± 2.9"}, {"measurement": "dPdtmax", "setting": "AktTG and NTG mice; AktTG", "result": "6993 ± 156"}, {"measurement": "dPdtmin", "setting": "AktTG and NTG mice; AktTG", "result": "−6241 ± 289"}, {"measurement": "EDP", "setting": "AktTG and NTG mice; NTG", "result": "4.9 ± 1.2"}, {"measurement": "EDV", "setting": "AktTG and NTG mice; NTG", "result": "44.5 ± 4.9"}, {"measurement": "EF", "setting": "AktTG and NTG mice; NTG", "result": "56.7 ± 3.5"}, {"measurement": "ESP", "setting": "AktTG and NTG mice; NTG", "result": "96.7 ± 4.7"}, {"measurement": "ESV", "setting": "AktTG and NTG mice; NTG", "result": "19.4 ± 3.0"}, {"measurement": "Eesn", "setting": "AktTG and NTG mice; NTG", "result": "39.9 ± 1.5"}, {"measurement": "HR", "setting": "AktTG and NTG mice; NTG", "result": "511.6 ± 31.4"}, {"measurement": "PMXI", "setting": "AktTG and NTG mice; NTG", "result": "25.9 ± 2.2"}, {"measurement": "Tau", "setting": "AktTG and NTG mice; NTG", "result": "7.4 ± 0.6"}, {"measurement": "dP/dtmax/IP", "setting": "AktTG and NTG mice; NTG", "result": "176.4 ± 14.8"}, {"measurement": "dPdtmax", "setting": "AktTG and NTG mice; NTG", "result": "10133 ± 791"}, {"measurement": "dPdtmin", "setting": "AktTG and NTG mice; NTG", "result": "−9267 ± 417"}, {"measurement": "enhancement of PKG-1 activity", "setting": "PKG-1; basal conditions, inhibitor alone", "result": "~10", "unit": "%"}, {"measurement": "rise in PKG-1 activity", "setting": "PKG-1; [2]", "result": "50% and 70%"}, {"measurement": "rise in PKG-1 activity over ISO alone", "setting": "PKG-1; [2]", "result": 30, "unit": "%"}, {"measurement": "ERK1/2 activation (phospho/total)", "setting": "ERK1/2; 1-week TAC", "result": "suppressed"}, {"measurement": "ERK1/2 activation (phospho/total)", "setting": "ERK1/2; 9-weeks TAC", "result": "no demonstrable effect"}, {"measurement": "isoproterenol-stimulated contractility in intact heart", "setting": "[1]; acute intravenous administration", "result": "marked suppression of this adrenergic stimulation response"}, {"measurement": "effect on the heart at rest (dP/dtmax)", "setting": "[1]; given alone, no ISO", "result": "no effect on the heart at rest"}, {"measurement": "NFAT promoter activation", "setting": "NFAT", "result": "suppressed activation"}, {"measurement": "TAC-increased PI3Kα activity", "setting": "PI3Kα", "result": "suppressed"}, {"measurement": "STAT3 activation (phosphorylation)", "setting": "STAT3", "result": "inhibits activation of STAT3"}]}
